The values below are quoted from earlier work in patent US20080003608A1, “Highly Specific Polyclonal Antibodies of Individual Core Histone and Uses Thereof” (priority 2004, published 2008).

This data set deals with T1, p300 (Homo sapiens, UniProt Q09472).
T1 construct: lane 3 curcumin (75 μM) treated cells, lane 4, curcumin (100 μM) treated cells; endogenous in cells
Conditions: reference (2).

Structures are written as SMILES.

T1 sequence (Q09472 whole entry, species assumed): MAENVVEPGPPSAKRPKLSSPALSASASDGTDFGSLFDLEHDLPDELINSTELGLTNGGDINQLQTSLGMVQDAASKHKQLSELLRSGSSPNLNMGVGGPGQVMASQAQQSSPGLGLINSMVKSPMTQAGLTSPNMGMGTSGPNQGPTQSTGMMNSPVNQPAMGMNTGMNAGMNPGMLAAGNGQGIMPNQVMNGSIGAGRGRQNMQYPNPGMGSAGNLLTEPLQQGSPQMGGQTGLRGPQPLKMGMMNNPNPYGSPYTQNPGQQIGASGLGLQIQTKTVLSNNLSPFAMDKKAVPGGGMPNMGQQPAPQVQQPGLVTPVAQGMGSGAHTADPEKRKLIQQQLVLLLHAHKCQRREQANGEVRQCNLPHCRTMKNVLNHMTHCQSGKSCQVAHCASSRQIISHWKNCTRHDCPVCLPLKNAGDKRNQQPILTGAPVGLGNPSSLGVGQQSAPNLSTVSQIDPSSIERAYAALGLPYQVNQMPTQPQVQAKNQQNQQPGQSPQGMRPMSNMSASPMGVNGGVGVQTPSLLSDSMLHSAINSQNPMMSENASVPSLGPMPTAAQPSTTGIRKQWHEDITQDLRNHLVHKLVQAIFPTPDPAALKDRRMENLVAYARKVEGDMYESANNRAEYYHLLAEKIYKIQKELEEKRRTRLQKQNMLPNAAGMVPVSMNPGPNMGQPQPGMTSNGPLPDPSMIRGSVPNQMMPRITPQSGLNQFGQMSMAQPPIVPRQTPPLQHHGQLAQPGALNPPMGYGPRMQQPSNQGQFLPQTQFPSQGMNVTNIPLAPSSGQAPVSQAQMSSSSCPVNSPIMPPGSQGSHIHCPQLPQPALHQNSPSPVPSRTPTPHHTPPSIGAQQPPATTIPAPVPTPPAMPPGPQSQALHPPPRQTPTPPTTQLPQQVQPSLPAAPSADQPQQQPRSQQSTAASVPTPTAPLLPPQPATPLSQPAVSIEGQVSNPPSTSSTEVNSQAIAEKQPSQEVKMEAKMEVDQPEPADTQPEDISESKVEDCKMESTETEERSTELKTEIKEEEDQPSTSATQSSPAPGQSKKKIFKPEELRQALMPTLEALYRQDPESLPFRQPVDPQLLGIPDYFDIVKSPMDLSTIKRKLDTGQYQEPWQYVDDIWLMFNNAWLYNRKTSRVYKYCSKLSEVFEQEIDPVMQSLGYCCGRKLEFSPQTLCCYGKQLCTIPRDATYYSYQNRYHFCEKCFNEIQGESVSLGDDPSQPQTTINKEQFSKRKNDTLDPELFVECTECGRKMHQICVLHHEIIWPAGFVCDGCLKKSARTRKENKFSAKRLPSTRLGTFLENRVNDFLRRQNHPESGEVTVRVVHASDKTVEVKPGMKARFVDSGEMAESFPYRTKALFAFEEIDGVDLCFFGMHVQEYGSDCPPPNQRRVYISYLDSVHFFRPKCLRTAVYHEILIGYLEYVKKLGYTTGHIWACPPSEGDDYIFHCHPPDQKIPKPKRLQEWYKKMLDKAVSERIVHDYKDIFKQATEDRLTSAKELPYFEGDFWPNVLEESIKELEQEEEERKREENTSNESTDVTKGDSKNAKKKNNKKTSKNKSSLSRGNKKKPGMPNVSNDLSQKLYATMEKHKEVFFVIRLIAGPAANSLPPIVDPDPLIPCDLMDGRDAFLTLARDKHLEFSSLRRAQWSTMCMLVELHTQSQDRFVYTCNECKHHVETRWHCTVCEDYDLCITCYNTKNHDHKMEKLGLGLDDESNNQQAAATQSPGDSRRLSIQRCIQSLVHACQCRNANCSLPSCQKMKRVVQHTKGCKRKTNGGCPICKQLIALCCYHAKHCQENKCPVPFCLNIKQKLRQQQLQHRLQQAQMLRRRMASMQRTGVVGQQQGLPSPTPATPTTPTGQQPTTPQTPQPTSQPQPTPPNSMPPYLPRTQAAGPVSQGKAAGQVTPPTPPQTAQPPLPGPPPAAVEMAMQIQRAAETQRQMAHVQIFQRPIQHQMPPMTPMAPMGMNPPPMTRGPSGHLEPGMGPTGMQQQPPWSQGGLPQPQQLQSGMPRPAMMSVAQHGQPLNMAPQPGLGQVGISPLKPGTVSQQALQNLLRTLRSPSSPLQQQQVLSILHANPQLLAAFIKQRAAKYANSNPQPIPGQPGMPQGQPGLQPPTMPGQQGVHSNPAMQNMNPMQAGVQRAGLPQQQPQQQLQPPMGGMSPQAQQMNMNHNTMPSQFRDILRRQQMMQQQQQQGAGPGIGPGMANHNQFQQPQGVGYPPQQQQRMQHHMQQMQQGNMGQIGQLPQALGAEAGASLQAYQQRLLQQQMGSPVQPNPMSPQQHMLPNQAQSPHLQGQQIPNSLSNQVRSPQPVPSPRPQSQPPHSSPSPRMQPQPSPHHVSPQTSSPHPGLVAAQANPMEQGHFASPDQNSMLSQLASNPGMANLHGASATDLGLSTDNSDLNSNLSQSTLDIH

Consider `COc1cc(/C=C/C(=O)CC(=O)/C=C/c2ccc(O)c(OC)c2)ccc1O` [Curcumin], for which the HAT inhibition result was “potent p300-specific HAT inhibitor”.
